What follows are compounds tested against T1, chimeric human H3 receptor (Homo sapiens, UniProt Q9Y5N1, E19D) (assay: Chimeric human H3 receptor GTP binding assay (agonist-stimulated GTP-gamma35S binding, Example 7)). Conditions: not given.
T1 construct: made in house; host or cells: Sf9 insect cells (baculovirus infection); P2 membrane preparation
Type: biochemical
How it was run: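 IC50 values come from non-linear regression of dose-response curves of filter-bound GTP-gamma^35S, counted by scintillation. Membranes were from infected Sf9 cells carrying receptor plus G-protein subunits, 35 μg/tube, with 10 μM GDP present.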

T1 sequence (Q9Y5N1 with tags, fused parts or gaps E19D): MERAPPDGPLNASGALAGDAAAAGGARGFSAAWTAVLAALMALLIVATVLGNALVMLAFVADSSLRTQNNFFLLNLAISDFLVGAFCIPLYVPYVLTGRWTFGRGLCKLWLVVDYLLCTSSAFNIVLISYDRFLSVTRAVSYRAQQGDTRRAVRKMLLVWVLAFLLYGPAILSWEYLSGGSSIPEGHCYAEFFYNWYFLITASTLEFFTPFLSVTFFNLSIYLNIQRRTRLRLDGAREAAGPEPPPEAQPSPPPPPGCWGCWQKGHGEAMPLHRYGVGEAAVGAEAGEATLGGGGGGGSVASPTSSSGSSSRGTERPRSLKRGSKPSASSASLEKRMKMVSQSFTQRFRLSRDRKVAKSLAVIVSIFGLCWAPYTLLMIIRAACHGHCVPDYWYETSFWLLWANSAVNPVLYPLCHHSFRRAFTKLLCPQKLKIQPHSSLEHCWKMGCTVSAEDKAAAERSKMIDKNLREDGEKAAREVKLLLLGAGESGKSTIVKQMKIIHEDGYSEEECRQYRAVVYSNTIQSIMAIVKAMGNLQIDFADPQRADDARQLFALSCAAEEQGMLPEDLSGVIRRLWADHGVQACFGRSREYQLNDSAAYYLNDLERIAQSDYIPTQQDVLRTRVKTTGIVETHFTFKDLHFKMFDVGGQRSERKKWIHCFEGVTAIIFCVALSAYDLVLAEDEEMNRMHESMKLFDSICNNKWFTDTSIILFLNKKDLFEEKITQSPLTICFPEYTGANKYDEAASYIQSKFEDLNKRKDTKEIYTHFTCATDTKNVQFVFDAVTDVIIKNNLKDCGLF

SMILES | Ki
O=C(CN1CCN(c2ccc(C(F)(F)F)cc2)CC1)N1CCN(C2CCCCC2)CC1 [Compound 803, 1-cyclohexyl-4-({4-[4-(trifluoromethyl)phenyl]piperazin-1-yl}acetyl)piperazine] | < 1000 nM

Same assay, conditions: Table II "Ki", symbol "*": Ki in the assay of Example 7; read-out: Ki

SMILES | Ki
O=C(CN1CCN(c2cccc(-c3ccc(F)cc3)c2)CC1)N1CCN(C2CCC2)CC1 [Compound 773, 1-cyclobutyl-4-{[4-(4′-fluorobiphenyl-3-yl)piperazin-1-yl]acetyl}piperazine] | < 1000 nM
O=C(CN1CCN(c2ccc(-c3ccc(F)cc3)cc2)CC1)N1CCN(C2CCC2)CC1 [Compound 774, 1-cyclobutyl-4-{[4-(4′-fluorobiphenyl-4-yl)piperazin-1-yl]acetyl}piperazine] | < 1000 nM
O=C(CN1CCN(c2ccc(F)cc2)CC1)N1CCN(C2CCC2)CC1 [Compound 775, 1-cyclobutyl-4-{[4-(4-fluorophenyl)piperazin-1-yl]acetyl}piperazine] | < 1000 nM
CC(C)c1ccc(-c2ccc(N3CCN(CC(=O)N4CCN(C5CCC5)CC4)CC3)cc2)cc1 [Compound 778, 1-cyclobutyl-4-{[4-(4′-isopropylbiphenyl-4-yl)piperazin-1-yl]acetyl}piperazine] | < 1000 nM
COc1ccc(-c2ccc(N3CCN(CC(=O)N4CCN(C5CCC5)CC4)CC3)cc2)c(C)c1 [Compound 779, 1-cyclobutyl-4-{[4-(4′-methoxy-2′-methylbiphenyl-4-yl)piperazin-1-yl]acetyl}piperazine] | < 1000 nM
COc1ccc(-c2ccc(N3CCN(CC(=O)N4CCN(C5CCC5)CC4)CC3)cc2)cc1C [Compound 780, 1-cyclobutyl-4-{[4-(4′-methoxy-3′-methylbiphenyl-4-yl)piperazin-1-yl]acetyl}piperazine] | < 1000 nM
COc1ccc(-c2ccc(N3CCN(CC(=O)N4CCN(C5CCC5)CC4)CC3)cc2)cc1 [Compound 781, 1-cyclobutyl-4-{[4-(4′-methoxybiphenyl-4-yl)piperazin-1-yl]acetyl}piperazine] | < 1000 nM
COc1ccc(N2CCN(CC(=O)N3CCN(C4CCC4)CC3)CC2)cc1 [Compound 782, 1-cyclobutyl-4-{[4-(4-methoxyphenyl)piperazin-1-yl]acetyl}piperazine] | < 1000 nM
Cc1ccc(-c2ccc(N3CCN(CC(=O)N4CCN(C5CCC5)CC4)CC3)cc2)cc1 [Compound 784, 1-cyclobutyl-4-{[4-(4′-methylbiphenyl-4-yl)piperazin-1-yl]acetyl}piperazine] | < 1000 nM
Cc1ccc(N2CCN(CC(=O)N3CCN(C4CCC4)CC3)CC2)cc1 [Compound 785, 1-cyclobutyl-4-{[4-(4-methylphenyl)piperazin-1-yl]acetyl}piperazine] | < 1000 nM
O=C(CN1CCN(c2ccc([N+](=O)[O-])cc2)CC1)N1CCN(C2CCC2)CC1 [Compound 786, 1-cyclobutyl-4-{[4-(4-nitrophenyl)piperazin-1-yl]acetyl}piperazine] | < 1000 nM
O=C(CN1CCN(c2ccc(-c3ccc(Oc4ccccc4)cc3)cc2)CC1)N1CCN(C2CCC2)CC1 [Compound 787, 1-cyclobutyl-4-{[4-(4′-phenoxybiphenyl-4-yl)piperazin-1-yl]acetyl}piperazine] | < 1000 nM
CCCOc1ccc(-c2ccc(N3CCN(CC(=O)N4CCN(C5CCC5)CC4)CC3)cc2)cc1 [Compound 789, 1-cyclobutyl-4-{[4-(4′-propoxybiphenyl-4-yl)piperazin-1-yl]acetyl}piperazine] | < 1000 nM
O=C(CN1CCN(c2ccc(-c3ccncc3)cc2)CC1)N1CCN(C2CCC2)CC1 [Compound 791, 1-cyclobutyl-4-{[4-(4-pyridin-4-ylphenyl)piperazin-1-yl]acetyl}piperazine] | < 1000 nM
COc1ccc(F)cc1-c1ccc(N2CCN(CC(=O)N3CCN(C4CCC4)CC3)CC2)cc1 [Compound 792, 1-cyclobutyl-4-{[4-(5′-fluoro-2′-methoxybiphenyl-4-yl)piperazin-1-yl]acetyl}piperazine] | < 1000 nM
COc1ccc(C(C)C)cc1-c1ccc(N2CCN(CC(=O)N3CCN(C4CCC4)CC3)CC2)cc1 [Compound 793, 1-cyclobutyl-4-{[4-(5′-isopropyl-2′-methoxybiphenyl-4-yl)piperazin-1-yl]acetyl}piperazine] | < 1000 nM
O=C(CN1CCN(C(=O)C2CCCO2)CC1)N1CCN(C2CCC2)CC1 (centres unmarked) [Compound 801, 1-cyclobutyl-4-{[4-(tetrahydrofuran-2-ylcarbonyl)piperazin-1-yl]acetyl}piperazine] | < 1000 nM
O=C(CN1CCN(c2ccc(F)c(C(F)(F)F)c2)CC1)N1CCN(C2CCCCC2)CC1 [Compound 804, 1-cyclohexyl-4-({4-[4-fluoro-3-(trifluoromethyl)phenyl]piperazin-1-yl}acetyl)piperazine] | < 1000 nM
O=C(CN1CCN(c2ccccc2)CC1)N1CCN(C2CCCCC2)CC1 [Compound 805, 1-cyclohexyl-4-[(4-phenylpiperazin-1-yl)acetyl]piperazine] | < 1000 nM
O=C(CN1CCC(N2CCCC2)CC1)N1CCN(C2CCCCC2)CC1 [Compound 806, 1-cyclohexyl-4-[(4-pyrrolidin-1-ylpiperidin-1-yl)acetyl]piperazine] | < 1000 nM
O=C(CN1CCN(c2ccc(Cl)c(Cl)c2)CC1)N1CCN(C2CCCCC2)CC1 [Compound 815, 1-cyclohexyl-4-{[4-(3,4-dichlorophenyl)piperazin-1-yl]acetyl}piperazine] | < 1000 nM
COc1ccc(N2CCN(CC(=O)N3CCN(C4CCCCC4)CC3)CC2)cc1OC [Compound 816, 1-cyclohexyl-4-{[4-(3,4-dimethoxyphenyl)piperazin-1-yl]acetyl}piperazine] | < 1000 nM
Cc1ccc(N2CCN(CC(=O)N3CCN(C4CCCCC4)CC3)CC2)cc1C [Compound 817, 1-cyclohexyl-4-{[4-(3,4-dimethylphenyl)piperazin-1-yl]acetyl}piperazine] | < 1000 nM
O=C(CN1CCN(c2cccc(F)c2)CC1)N1CCN(C2CCCCC2)CC1 [Compound 819, 1-cyclohexyl-4-{[4-(3-fluorophenyl)piperazin-1-yl]acetyl}piperazine] | < 1000 nM
COc1cccc(N2CCN(CC(=O)N3CCN(C4CCCCC4)CC3)CC2)c1 [Compound 820, 1-cyclohexyl-4-{[4-(3-methoxyphenyl)piperazin-1-yl]acetyl}piperazine] | < 1000 nM
Cc1cccc(N2CCN(CC(=O)N3CCN(C4CCCCC4)CC3)CC2)c1 [Compound 821, 1-cyclohexyl-4-{[4-(3-methylphenyl)piperazin-1-yl]acetyl}piperazine] | < 1000 nM
O=C(CN1CCN(c2ccc(F)cc2)CC1)N1CCN(C2CCCCC2)CC1 [Compound 822, 1-cyclohexyl-4-{[4-(4-fluorophenyl)piperazin-1-yl]acetyl}piperazine] | < 1000 nM
COc1ccc(N2CCN(CC(=O)N3CCN(C4CCCCC4)CC3)CC2)cc1 [Compound 823, 1-cyclohexyl-4-{[4-(4-methoxyphenyl)piperazin-1-yl]acetyl}piperazine] | < 1000 nM
Cc1ccc(N2CCN(CC(=O)N3CCN(C4CCCCC4)CC3)CC2)cc1 [Compound 824, 1-cyclohexyl-4-{[4-(4-methylphenyl)piperazin-1-yl]acetyl}piperazine] | < 1000 nM

Same assay, conditions: Table II, "*" in Ki; assay of Example 7; read-out: Ki

SMILES | Ki
CC(C)Oc1cccc(-c2ccc(N3CCN(CC(=O)N4CCN(C5CCC5)CC4)CC3)cc2)c1 [Compound 755, 1-cyclobutyl-4-{[4-(3′-isopropoxybiphenyl-4-yl)piperazin-1-yl]acetyl}piperazine] | < 1000 nM
CC(C)c1cccc(-c2ccc(N3CCN(CC(=O)N4CCN(C5CCC5)CC4)CC3)cc2)c1 [Compound 756, 1-cyclobutyl-4-{[4-(3′-isopropylbiphenyl-4-yl)piperazin-1-yl]acetyl}piperazine] | < 1000 nM
COc1cccc(-c2ccc(N3CCN(CC(=O)N4CCN(C5CCC5)CC4)CC3)cc2)c1 [Compound 758, 1-cyclobutyl-4-{[4-(3′-methoxybiphenyl-4-yl)piperazin-1-yl]acetyl}piperazine] | < 1000 nM
COc1cccc(N2CCN(CC(=O)N3CCN(C4CCC4)CC3)CC2)c1 [Compound 759, 1-cyclobutyl-4-{[4-(3-methoxyphenyl)piperazin-1-yl]acetyl}piperazine] | < 1000 nM
Cc1cccc(-c2ccc(N3CCN(CC(=O)N4CCN(C5CCC5)CC4)CC3)cc2)c1 [Compound 762, 1-cyclobutyl-4-{[4-(3′-methylbiphenyl-4-yl)piperazin-1-yl]acetyl}piperazine] | < 1000 nM
Cc1cccc(N2CCN(CC(=O)N3CCN(C4CCC4)CC3)CC2)c1 [Compound 763, 1-cyclobutyl-4-{[4-(3-methylphenyl)piperazin-1-yl]acetyl}piperazine] | < 1000 nM
COC[C@H]1CCCN1C(=O)c1ccc(N2CCN(CC(=O)N3CCN(C4CCC4)CC3)CC2)cc1 [Compound 767, 1-cyclobutyl-4-{[4-(4-{[(2R)-2-(methoxymethyl)pyrrolidin-1-yl]carbonyl}phenyl)piperazin-1-yl]acetyl}piperazine] | < 1000 nM
COC[C@@H]1CCCN1C(=O)c1ccc(N2CCN(CC(=O)N3CCN(C4CCC4)CC3)CC2)cc1 [Compound 768, 1-cyclobutyl-4-{[4-(4-{[(2S)-2-(methoxymethyl)pyrrolidin-1-yl]carbonyl}phenyl)piperazin-1-yl]acetyl}piperazine] | < 1000 nM
CCOc1ccc(-c2ccc(N3CCN(CC(=O)N4CCN(C5CCC5)CC4)CC3)cc2)cc1 [Compound 769, 1-cyclobutyl-4-{[4-(4′-ethoxybiphenyl-4-yl)piperazin-1-yl]acetyl}piperazine] | < 1000 nM
CCc1ccc(-c2ccc(N3CCN(CC(=O)N4CCN(C5CCC5)CC4)CC3)cc2)cc1 [Compound 770, 1-cyclobutyl-4-{[4-(4′-ethylbiphenyl-4-yl)piperazin-1-yl]acetyl}piperazine] | < 1000 nM
Cc1cc(-c2ccc(N3CCN(CC(=O)N4CCN(C5CCC5)CC4)CC3)cc2)ccc1F [Compound 771, 1-cyclobutyl-4-{[4-(4′-fluoro-3′-methylbiphenyl-4-yl)piperazin-1-yl]acetyl}piperazine] | < 1000 nM
